Seven compounds from US8906952B2, “Indole derivative or pharmaceutically acceptable salt thereof, preparation method thereof, and pharmaceutical composition for preventing or treating metabolic diseases containing same as active ingredient” (Korea Research Institute of Bioscience and Biotechnology, priority 2011, dated 2014) can be followed below.

One series deals with HuTu80 cells. Put plainly: DGAT activity inhibitory effect in HuTu80 cells (triglyceride production from [14C]oleate). It is filed as cell-based, human. The following applies: for activity at 0.3 µM / activity at 1 µM / activity at 3 µM / activity at 10 µM / inhibition at 10 µM: Homo sapiens, HuTu80; for activity at 0.3 µM / activity at 1 µM / activity at 3 µM / activity at 10 µM: read-out: Triglyceride Production Rate (% of control)/HuTu80cells; for inhibition at 10 µM / inhibition of biosynthesis of triglycerides (in words): Hutu 80 cells; for inhibition at 10 µM: read-out: inhibitory activity on intracellular biosynthesis of triglycerides. Here is the method: HuTu80 cells were seeded in 24-well culture plate by 2×10^5 cells/well. After 24 hr, the medium was exchanged with FBS-free DMEM and concurrently treated with sample and substrate. For the substrate, 0.5 μCi [^14C]oleate was respectively added and allowed to react for 2 hr. After the reaction, the substrate that was either not absorbed into cells or not used for the reaction were washed with PBS two times, and total fat containing triglyceride was extracted by adding 1 ml extraction solvent (n-hexane/2-propanol=3/2, v/v). The extract was concentrated with nitrogen gas. The total fat after elimination of extraction solvent was dissolved in organic solvent (chloroform/methanol=2/1, v/v), spotted on thin layer chromatography (TLC: silica gel 60F254, 0.5 mm, Merck), and developed on developing solvent (n-hexane/diethyl ether/acetic acid=80/20/1, v/v/v). After isolating triglyceride (R∫ value: 0.4) from TLC, exposing to the film with photosensitivity to energy of radioactive elements (imaging plate's Fujifilm, BAS-MS 2040) for 3 hr, and the radioactive dose of triglyceride was measured by conducting image analysis (FLA 7000).
The remaining cells after the extraction were dissolved in 0.3 ml 0.1N NaOH to measure the protein concentration of the cells used for the reaction. The protein quantification was performed with Lowry method-based, protein quantification kit (Bio-Rad). After seeding protein on 96-well, round bottom culture plate, 25 μl of solution containing 1 ml protein analysis reagent (bio-rad, alkaline copper tartrate solution) and 20 μl protein reagent S (bio-rad, surfactant solution) was seeded per well, to induce reaction between copper ion and protein. After reaction with copper ion, 200 μl reagent B (bio-rad, folin reagent) was seeded per well to allow reduction reaction of the folin reagent to occur. For the amount of protein, the light absorptivity at 750 nm was measured based on the blue coloring of the folin reagent as the reduction occurred, and the concentrations of the protein corresponding to respective light absorptivities were quantified by obtaining standard curves with the standard material as bovine serum albumin (BSA). Using the experiment value, which is obtained by dividing the measured radiation dose of the triglyceride by the protein concentration, the above process was repeated three or more times, and the mean value with ±standard error was obtained, as tabulated below.

A further series has as its system ICR mice. Put plainly: Acute toxicity assay. It is filed as in vivo. To be noted: oral 100, 250 mg/kg; observation over two weeks. Here is the method:
In order to investigate acute toxicity of the indole derivatives according to the present invention, mice (20±5 g, Central Lab. Animal Inc.) and rats (235±10 g, Central Lab. Animal Inc.) were used for the acute toxicity assay of compound 1.
A total of […] of 10 ICR mice were orally administered with compound 1 according to the present invention by the dose of 100, 250 mg/kg, respectively.

The test system of a further series is C57BL/6J mice. Nature of the series: Oral lipid tolerance test (OLTT), corn oil load. It is filed as in vivo. To be noted: for increase of triglyceride concentration: 30 mg/kg; for effect on blood triglyceride concentration (in words): administered to mice. Here is the method: For experiment, 8-week-old male C57BL/6J mice were purchased from Biolink, adapted to environment in bio clean room (Temp. 22±3° C., Humidity 50±10%, Lighting 12 hr interval) for 1 week, and one day before the experiment, fasted for 16 hr. The mice were allowed to freely eat radiation-sterilized solid rodent feed (Harlan, Ind., USA), except for the 16 hr fasting period before the administration of test sample, and were also allowed to freely have a sufficient amount of drinking water which was sterilized in autoclave throughout the test period.
Seven C57BL/6J mice were allocated for solvent control group (V.C., Vehicle Control), and another seven for experimental group (sample group), after which sample was administered as follows.
The normal control group was administered with administration medium (0.5% CMC; carboxy methyl cellulose) only, while the experimental group was orally administered with the compounds of Examples 27 and 49 by 10, 30 mg/kg concentrations, respectively. Before administering the samples to all the animals of the experimental group, the animals were fasted for 16 hr, after which the corresponding sample was orally administered one time, using sonde for oral administration. After 60 min, 6 ml/kg liquid measure of corn oil was orally administered. Blood samples were taken immediately before administration of the corn oil (at 0 hr), and after the corn coil administration, the blood samples were taken directly using heparin-treated capillary tube from retro-orbital sinus at predetermined time (at 2 hr and at 4 hr). The blood samples were centrifuged at 3,000 rpm for 10 min to separate plasma, and the concentration of triglyceride was directly analyzed with automated hematology chemistry analyzer (Hitachi 7150, Japan).

Where [1] appears, read: 10 mg/kg oral, 0 hr (immediately before corn oil).
[2] abbreviates: 10 mg/kg oral, 2 hr after corn oil.
The mark [3] stands for this setting: 10 mg/kg oral, 4 hr after corn oil.
The mark [4] stands for this setting: 30 mg/kg oral, 0 hr (immediately before corn oil).
[5] abbreviates: 30 mg/kg oral, 2 hr after corn oil.
The mark [6] stands for this setting: 30 mg/kg oral, 4 hr after corn oil.
Setting [7] is: after 2 hr of corn oil administration.
Setting [8] is: after 4 hr of corn oil administration.

With `Cc1cccc(C(=O)NN(C(=O)/C=C/c2cn(C(=O)OC(C)(C)C)c3ccccc23)C(C)C)c1` [Example 47, (E)-tert-butyl 3-(3-(1-isopropyl-2-(3-methylbenzoyl)hydrazinyl)-3-oxoprop-1-enyl)-1H-indole-1-carboxylate], in the series on HuTu80 cells, the activity at 0.3 µM is 56.1 ± 0.1%, the activity at 1 µM came out at 30.2 ± 1.2%, the activity at 3 µM was 19 ± 5% and the activity at 10 µM turned out to be 13.7 ± 1.5%. Moreover, in the series with HuTu80 cells, the inhibition at 10 µM lay in the range of 70 to 80% and the “inhibition of biosynthesis of triglycerides (in words)” value (shortened to “inhibition … (in words)”) was “inhibited biosynthesis of triglycerides in a concentration-dependent manner”.
Take `CC(C)N(NC(=O)c1ccccc1)C(=O)/C=C/c1cn(C(=O)OC(C)(C)C)c2ccccc12` [Example 1, (E)-tert-butyl 3-(3-(2-benzoyl-1-isopropylhydrazinyl)-3-oxoprop-1-enyl)-1H-indole-1-carboxylate]: in the series with ICR mice, the death entry is “no death” and the “difference on the outside” value is given as “nor did the groups show any specific difference on the outside”.
As for `CC(C)CCn1cc(/C=C/C(=O)N(NC(=O)c2ccc(F)cc2)C(C)C)c2ccccc21` [Example 46, (E)-4-fluoro-N′-(3-(1-isopentyl-1H-indol-3-yl)acryloyl)-N′-isopropylbenzohydrazide], in the series with HuTu80 cells, the activity at 0.3 µM worked out at 30 ± 0.3%, the activity at 1 µM stood at 30 ± 1.3%, the activity at 3 µM stood at 20 ± 1.2% and the activity at 10 µM is 20 ± 1.8%. In the series on HuTu80 cells, the inhibition at 10 µM was 70 to 80% and the “inhibition … (in words)” value was “inhibited biosynthesis of triglycerides in a concentration-dependent manner”.
With `CC(C)N(NC(=O)c1ccc(F)cc1)C(=O)/C=C/c1cn(C(=O)OC(C)(C)C)c2ccccc12` [Example 44, (E)-tert-butyl 3-(3-(2-(4-fluorobenzoyl)-1-isopropylhydrazinyl)-3-oxoprop-1-enyl)-1H-indole-1-carboxylate], in the series on HuTu80 cells, the activity at 0.3 µM came out at 63.9 ± 4.3%, the activity at 1 µM is 43.7 ± 0.3%, the activity at 3 µM was 29 ± 0.9% and the activity at 10 µM is 20 ± 1.2%. Further, in the series on HuTu80 cells, the inhibition at 10 µM lay in the range of 70 to 80% and the “inhibition … (in words)” value is on record as “inhibited biosynthesis of triglycerides in a concentration-dependent manner”.
On to `Cc1ccc(C(=O)NN(C(=O)/C=C/c2cn(C(=O)OC(C)(C)C)c3ccccc23)C(C)C)cc1` [Example 48, (E)-tert-butyl 3-(3-(1-isopropyl-2-(4-methylbenzoyl)hydrazinyl)-3-oxoprop-1-enyl)-1H-indole-1-carboxylate], for which the activity at 10 µM in the series with HuTu80 cells worked out at 23.9 ± 0.8%.
Turning to `CC(C)=CCn1cc(/C=C/C(=O)N(NC(=O)c2ccc(F)cc2)C(C)C)c2ccccc21` [Example 49, (E)-4-fluoro-N′-isopropyl-N′-(3-(1-(3-methylbut-2-enyl)-1H-indol-3-yl)acryloyl)benzohydrazide], the activity at 0.3 µM with HuTu80 cells was 66.9 ± 3%. Also, the activity at 1 µM with HuTu80 cells worked out at 33.4 ± 4.4%. In the series on HuTu80 cells, the activity at 3 µM stood at 21.4 ± 0.3%. In addition, in the series with HuTu80 cells, the activity at 10 µM was 13.1 ± 0.9%. For the same compound, in the series with HuTu80 cells, the inhibition at 10 µM was 70 to 80%. Besides, the “inhibition … (in words)” value in the series with HuTu80 cells was “inhibited biosynthesis of triglycerides in a concentration-dependent manner”. For the same compound, the “Serum TG” value in the series on C57BL/6J mice (setting [1]) is 78.8 ± 23.2 mg/dL; with C57BL/6J mice (setting [2]), 90.8 ± 28.2 mg/dL; with C57BL/6J mice (setting [3]), 43.2 ± 12.9 mg/dL; in the series on C57BL/6J mice (setting [4]) it was 45.8 ± 6.1 mg/dL; with C57BL/6J mice (setting [5]), 86.4 ± 11.1 mg/dL; in the series with C57BL/6J mice (setting [6]), 50.0 ± 11.9 mg/dL. The “increase of triglyceride concentration” value is roughly 2.3 fold with C57BL/6J mice (setting [7]) and roughly 1.8 fold in the series on C57BL/6J mice (setting [8]). Also, the “effect on blood triglyceride concentration (in words)” value in the series on C57BL/6J mice is “superior effect of decreasing blood triglyceride concentration”.
As for `CC(C)=CCn1cc(/C=C/C(=O)N(NC(=O)c2ccccc2)C(C)C)c2ccccc21` [Example 27, (E)-N′-isopropyl-N′-(3-(1-(3-methylbut-2-enyl)-1H-indol-3-yl)acryloyl)benzohydrazide], in the series on HuTu80 cells, the activity at 10 µM turned out to be 13.1 ± 0.9%. Moreover, the inhibition at 10 µM in the series with HuTu80 cells lay in the range of 70 to 80%. Moreover, the “Serum TG” value in the series with C57BL/6J mice (setting [1]) is 62.8 ± 20.6 mg/dL; in the series with C57BL/6J mice (setting [2]), 171.0 ± 61.7 mg/dL; in the series with C57BL/6J mice (setting [3]), 83.0 ± 22.8 mg/dL; in the series on C57BL/6J mice (setting [4]), 45.4 ± 7.2 mg/dL; with C57BL/6J mice (setting [5]), 104.2 ± 40.3 mg/dL; in the series on C57BL/6J mice (setting [6]), 79.8 ± 37.3 mg/dL. Moreover, the results for the “increase of triglyceride concentration” value with C57BL/6J mice (setting [7]) and in the series on C57BL/6J mice (setting [8]) were “approximately 1.9 fold” and “approximately 1.1 fold”, respectively. Further, in the series on C57BL/6J mice, the “effect on blood triglyceride concentration (in words)” value is recorded as “superior effect of decreasing blood triglyceride concentration”.
